Literature values, collected in patent US7435726B2, “Compositions and methods for the treatment of cancer” (Celgene Corporation, priority 2001, dated 2008).

Conditions: irinotecan monotherapy, expected frequency

CCc1c2c(nc3ccc(OC(=O)N4CCC(N5CCCCC5)CC4)cc13)-c1cc3c(c(=O)n1C2)COC(=O)[C@]3(O)CC [Irinotecan, (4S)-4,11-diethyl-4-hydroxy-9-[(4-piperidino-piperidino)carbonyl-oxy]1H-pyranol-[3′,4′:6,7]indolizinol[1,2-b]quinoline-3,14-(4H,12H)dione]
Abdominal colic/pain, Expected (%) Grade 1-4: 23.7%
Abdominal colic/pain, Expected (%) Grade 3-4: 2.3%
Asthenia, Expected (%) Grade 1-4: 75.7%
Asthenia, Expected (%) Grade 3-4: 12.2%
Constipation, Expected (%) Grade 1-4: 29.9%
Constipation, Expected (%) Grade 3-4: 2.0%
Diarrhea (Late), Expected (%) Grade 1-4: 87.8%
Diarrhea (Late), Expected (%) Grade 3-4: 30.6%
Nausea, Expected (%) Grade 1-4: 86.2%
Vomiting, Expected (%) Grade 1-4: 66.8%
Vomiting, Expected (%) Grade 3-4: 12.5%
